In US20040127403A1, “Methods for treating and preventing Gram-positive bacteremias” (priority 2002, published 2004):

System: E. faecium A6345 Line-R
Assay: MIC, NCCLS broth microdilution
Assay type: cell-based
Procedure: The efficacy of ramoplanin was tested against recently isolated VRE that are resistant to linezolid and quinupristin/dalfopristin. The culture media containing ramoplanin was supplemented with 0.02% bovine serum albumin (BSA) to prevent ramoplanin binding to the plastic. MIC values were determined in both cation-adjusted Mueller-Hinton broth (CAMHB) and trypticase soy broth (TSB) by the National Committee for Clinical Laboratory Standards (NCCLS) broth microdilution method. Macromolecular biosynthesis experiments were done by following the incorporation of carbon-14-labeled N-acetylglucosamine, acetic acid, amino acids, uridine, and thymidine into peptidoglycan, fatty acid, protein, RNA and DNA, respectively.

[1] = E. faecium A6345 Line-R. as printed, second row of Table 3
[2] = E. faecium A6345 Line-R., first row of Table 3

| SMILES | reference MIC for strains used for killing curve [1] | reference MIC for strains used for killing curve [2] |
| --- | --- | --- |
| O=C(N[C@H](CO)[C@H](O)c1ccc([N+](=O)[O-])cc1)C(Cl)Cl [Chloramphenicol] | 16 µg/mL | 16 µg/mL |
| CO[C@H]1/C=C/O[C@@]2(C)Oc3c(C)c(O)c4c(O)c(c(/C=N/N5CCN(C)CC5)c(O)c4c3C2=O)NC(=O)/C(C)=C\C=C\[C@H](C)[C@H](O)[C@@H](C)[C@@H](O)[C@@H](C)[C@H](OC(C)=O)[C@@H]1C [Rifampin] | 0.03 µg/mL | 16 µg/mL |
